The values that follow come from patent publication US8895695B2, “Template-fixed beta-hairpin peptidomimetics with CXCR4 antagonizing activity” (priority 2003, dated 2014).

Data set [1] can be described thus: in vitro. Particulars: human.
Experimental: Each peptide concentration was assayed in triplicate. […] Wells were then washed once with PBS and subsequently 100 μl MTT reagent (0.5 mg/mL in medium RPMI1640 and, respectively, DMEM) was added to the wells. This was incubated at 37° C. for 2 hours and subsequently the medium was aspirated and 100 μl isopropanol was added to each well. […] For each concentration averages were calculated from triplicates. The percentage of growth was calculated as follows: (OD595peptide-OD595Tz-OD595Empty well)/(OD595Tz-OD595Empty well)×100% and was plotted for each peptide concentration.
‘CCR5’ cells were cultured in DMEM medium with 4500 mg/ml glucose, 10% fetal bovine serum (FBS), supplemented with 50 U/ml Penicillin and 50 μg/ml Streptomycin (Pen/Strept.). Hut/4-3 cells were maintained in RPMI medium, 10% FBS, supplemented with Pen/Strept. and 10 mM HEPES. HELA cells and CCRF-CEM cells were maintained in RPMI1640 plus 5% FBS, Pen/Strept and 2 mM L-Glutamine. Cos-7 cells were grown in DMEM medium with 4500 mg/ml glucose supplemented with 10% FCS, Pen/Strept. and 2 mM L-Glutamine. All cell lines were grown at 37° C. at 5% CO2.
Data set [2] concerns human red blood cells (hRBC). The data set can be described thus: Hemolysis. It counts as cell-based. The method in brief: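 Washed fresh human erythrocytes (20% v/v, about 0.9×10^9 cells/ml final) incubated with peptide at 100 μM for 1 h at 37° C. Supernatant diluted 20-fold and OD540 read. Percent hemolysis relative to 0.1% Triton X-100 in H2O (100%), with PBS alone as 0%.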

The target of data set [3] is CXCR4 (Homo sapiens, UniProt P61073). The data set can be described thus: Ca2+-assay method 2 (Flexstation, SDF-1 induced calcium mobilization). Set-up: expressed in transfected cells; host or cells: mouse pre-B cell line 300-19. Particulars: method 2 (Ex. 54-160), mouse pre-B cell line 300-19 with human CXCR4, 10 nM SDF-1; read-out: IC50 (nM) Ca^2+ assay. It counts as cell-based. In general terms: Calcium assays in cells follow changes in intracellular calcium, usually with a dye or a luminescent sensor.

Bridge positions count the residues as written; N and C are the ends. Square brackets hold non-standard residues; d marks the D form. Peptide text beside a SMILES is read from it. 2Nal = N[C@@H](Cc1ccc2ccccc2c1)C(=O)O; Gly(N-2-aminoethyl) = NCCNCC(=O)O; Cit = NC(=O)NCCC[C@H](N)C(=O)O; Dab = NCC[C@H](N)C(=O)O Where only a bound is given, the exact number is not on record here.
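Throughout, for GI50: MTT reduction read as absorbance at 595 nm, blank-corrected and expressed as percent growth relative to the time-zero cell reading, triplicate wells per concentration.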

CXCR4, sequence (P61073 whole entry): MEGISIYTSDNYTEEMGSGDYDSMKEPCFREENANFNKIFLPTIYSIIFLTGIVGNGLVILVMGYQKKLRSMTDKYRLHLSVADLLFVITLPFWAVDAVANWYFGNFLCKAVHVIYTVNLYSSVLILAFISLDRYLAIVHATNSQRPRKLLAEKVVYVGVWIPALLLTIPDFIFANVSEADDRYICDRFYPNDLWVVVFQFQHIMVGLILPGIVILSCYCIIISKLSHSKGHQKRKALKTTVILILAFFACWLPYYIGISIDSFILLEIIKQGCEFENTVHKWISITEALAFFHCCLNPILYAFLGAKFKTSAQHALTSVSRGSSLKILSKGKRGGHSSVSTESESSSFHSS

As usually defined, the GI50 is the concentration that inhibits growth by half. Lower therefore signals more potent growth inhibition. One may read the IC50 as the concentration needed to halve the response being measured. For the compound `N=C(N)NCCC[C@@H]1NC(=O)[C@@H]2CSSC[C@H](NC(=O)[C@H](Cc3ccc4ccccc4c3)NC(=O)[C@H](CCCNC(=N)N)NC(=O)[C@H](CCCNC(=N)N)NC(=O)[C@H]3CCCN3C(=O)CNC1=O)C(=O)N[C@@H](Cc1ccc(O)cc1)C(=O)N[C@@H](CCC(N)=O)C(=O)N[C@@H](CCCCN)C(=O)N1CCC[C@@H]1C(=O)N1CCC[C@H]1C(=O)N[C@@H](Cc1ccc(O)cc1)C(=O)N[C@@H](CCCNC(=N)N)C(=O)N[C@@H](CC(N)=O)C(=O)N2` [Ex. 92] (cyclo(YRNCRG[dP]RR[2Nal]CYQK[dP]P); disulfide 4-11), halving of growth in data set [1] (GI50 at 48 h) required 53 µM. The same compound gave a Hemolysis at 100 μM in data set [2] of 0.5%. In data set [3], the IC50 came out at 1.1 nM.

With `N=C(N)NCCC[C@@H]1NC(=O)[C@@H]2CSSC[C@H](NC(=O)[C@H](Cc3c[nH]c4ccccc34)NC(=O)[C@H](CCCNC(=N)N)NC(=O)[C@H](CCN)NC(=O)[C@H]3CCCN3C(=O)CNC1=O)C(=O)N[C@@H](Cc1ccc(O)cc1)C(=O)N[C@@H](CCC(N)=O)C(=O)N[C@@H](CCCCN)C(=O)N1CCC[C@@H]1C(=O)N1CCC[C@H]1C(=O)N[C@@H](Cc1ccc(O)cc1)C(=O)N[C@@H](CCCNC(=N)N)C(=O)N[C@@H](CCCNC(N)=O)C(=O)N2` [Ex. 109] (cyclo(YR[Cit]CRG[dP][Dab]RWCYQK[dP]P); disulfide 4-11), in data set [1], the GI50 at 48 h is 65 µM. Besides, in data set [2], the Hemolysis at 100 μM was found to be 0%. In addition, the IC50 in data set [3] is 3 nM.

Take `N=C(N)NCCC[C@@H]1NC(=O)[C@@H]2CSSC[C@H](NC(=O)[C@H](Cc3ccc4ccccc4c3)NC(=O)[C@H](CCCNC(=N)N)NC(=O)[C@H](CCCNC(=N)N)NC(=O)[C@H]3CCCN3C(=O)CNC1=O)C(=O)N[C@@H](Cc1ccc(O)cc1)C(=O)N[C@@H](CC(N)=O)C(=O)N[C@@H](CCCCN)C(=O)N1CCC[C@@H]1C(=O)N1CCC[C@H]1C(=O)N[C@@H](Cc1ccc(O)cc1)C(=O)N[C@@H](CCCNC(=N)N)C(=O)N[C@@H](CCCNC(N)=O)C(=O)N2` [Ex. 77] (cyclo(YR[Cit]CRG[dP]RR[2Nal]CYNK[dP]P); disulfide 4-11): the GI50 at 48 h in data set [1] was more than 100 µM. The Hemolysis at 100 μM in data set [2] worked out at 0.2%. For the same compound, the IC50 in data set [3] came to 7 nM.

The compound `CC(C)C[C@@H]1NC(=O)[C@H](CCCNC(=N)N)NC(=O)[C@H](Cc2ccc(O)cc2)NC(=O)[C@@H]2CCCN2C(=O)[C@H]2CCCN2C(=O)[C@H](CCCCN)NC(=O)[C@H](CCC(N)=O)NC(=O)[C@H](Cc2ccc(O)cc2)NC(=O)[C@@H]2CSSC[C@H](NC1=O)C(=O)N[C@@H](CCCNC(=N)N)C(=O)NCC(=O)N1CCC[C@@H]1C(=O)N[C@@H](CCCNC(=N)N)C(=O)N[C@@H](CCCNC(=N)N)C(=O)N[C@@H](Cc1ccc3ccccc3c1)C(=O)N2` [Ex. 97] (cyclo(YRLCRG[dP]RR[2Nal]CYQK[dP]P); disulfide 4-11) showed a GI50 at 48 h in data set [1] of 44 µM. This compound also displayed a Hemolysis at 100 μM in data set [2] of 0.8%. In data set [3], the IC50 was 4.3 nM.

In data set [1], `N=C(N)NCCC[C@@H]1NC(=O)[C@@H]2CCC(=O)NCC[C@H](NC(=O)[C@H](Cc3c[nH]c4ccccc34)NC(=O)[C@H](CCCNC(=N)N)NC(=O)[C@H](CCCNC(=N)N)NC(=O)[C@H]3CCCN3C(=O)CNC1=O)C(=O)N[C@@H](Cc1ccc(O)cc1)C(=O)N[C@@H](CCCNC(N)=O)C(=O)N[C@@H](CCCCN)C(=O)N1CCC[C@@H]1C(=O)N1CCC[C@H]1C(=O)N[C@@H](Cc1ccc(O)cc1)C(=O)N[C@@H](CCCNC(=N)N)C(=O)N[C@@H](CCCNC(N)=O)C(=O)N2` [Ex. 153] (cyclo(YR[Cit]ERG[dP]RRW[Dab]Y[Cit]K[dP]P); lactam 4-11) showed a GI50 at 48 h of 43 µM. The compound further displayed a Hemolysis at 100 μM in data set [2] of 1.7%. For the same compound, the IC50 in data set [3] amounted to 21.9 nM.

`N=C(N)NCCC[C@@H]1NC(=O)[C@@H]2CSSC[C@H](NC(=O)[C@H](Cc3ccc(O)cc3)NC(=O)[C@H](CCCNC(=N)N)NC(=O)[C@H](CCCNC(=N)N)NC(=O)[C@H]3CCCN3C(=O)CNC1=O)C(=O)N[C@@H](CCCNC(N)=O)C(=O)N[C@@H](Cc1ccc(O)cc1)C(=O)N[C@@H](CCCCN)C(=O)N1CCC[C@@H]1C(=O)N1CCC[C@H]1C(=O)N[C@@H](Cc1ccc(O)cc1)C(=O)N[C@@H](CCCNC(=N)N)C(=O)N[C@@H](CCCNC(N)=O)C(=O)N2` [Ex. 113] (cyclo(YR[Cit]CRG[dP]RRYC[Cit]YK[dP]P); disulfide 4-11) had a GI50 at 48 h in data set [1] of 45 µM. The Hemolysis at 100 μM in data set [2] is 0%. Moreover, in data set [3], the IC50 was 0.62 nM.

Take `CSCC[C@@H]1NC(=O)[C@H](CCCNC(=N)N)NC(=O)[C@H](Cc2ccc(O)cc2)NC(=O)[C@@H]2CCCN2C(=O)[C@H]2CCCN2C(=O)[C@H](CCCCN)NC(=O)[C@H](CCC(N)=O)NC(=O)[C@H](Cc2ccc(O)cc2)NC(=O)[C@@H]2CSSC[C@H](NC1=O)C(=O)N[C@@H](CCCNC(=N)N)C(=O)NCC(=O)N1CCC[C@@H]1C(=O)N[C@@H](CCCNC(=N)N)C(=O)N[C@@H](CCCNC(=N)N)C(=O)N[C@@H](Cc1ccc3ccccc3c1)C(=O)N2` [Ex. 100] (cyclo(YRMCRG[dP]RR[2Nal]CYQK[dP]P); disulfide 4-11): in data set [1], growth was halved (GI50 at 48 h) at 43 µM. Also, the Hemolysis at 100 μM in data set [2] is 0.8%. Besides, in data set [3], the IC50 was determined as 7 nM.

Compound `N=C(N)NCCC[C@@H]1NC(=O)[C@@H]2CSSC[C@H](NC(=O)[C@H](Cc3ccc4ccccc4c3)NC(=O)[C@H](CCCNC(=N)N)NC(=O)[C@H](CCCNC(=N)N)NC(=O)[C@H]3CCCN3C(=O)CNC1=O)C(=O)N[C@@H](Cc1ccc(O)cc1)C(=O)N[C@@H](CCC(N)=O)C(=O)N[C@@H](CCCCN)C(=O)N1CCC[C@@H]1C(=O)N1CCC[C@H]1C(=O)N[C@@H](Cc1ccc(O)cc1)C(=O)N[C@@H](CCCNC(=N)N)C(=O)N[C@@H](CO)C(=O)N2` [Ex. 96] (cyclo(YRSCRG[dP]RR[2Nal]CYQK[dP]P); disulfide 4-11) came in with a GI50 at 48 h in data set [1] of 69 µM. The compound also gave a Hemolysis at 100 μM in data set [2] of 1%. The IC50 in data set [3] was 3 nM.

The compound `N=C(N)NCCC[C@@H]1NC(=O)[C@@H]2CSSC[C@H](NC(=O)[C@H](Cc3ccc4ccccc4c3)NC(=O)[C@H](CCCNC(=N)N)NC(=O)[C@H](CCCNC(=N)N)NC(=O)[C@H]3CCCN3C(=O)CNC1=O)C(=O)N[C@@H](Cc1ccc(O)cc1)C(=O)N[C@@H](CCC(N)=O)C(=O)N[C@@H](CCCCN)C(=O)N1CCC[C@@H]1C(=O)N1CCC[C@H]1C(=O)N[C@@H](Cc1ccc(O)cc1)C(=O)N[C@@H](CCCNC(=N)N)C(=O)N1CCC[C@H]1C(=O)N2` [Ex. 74] (cyclo(YRPCRG[dP]RR[2Nal]CYQK[dP]P); disulfide 4-11) returned a GI50 at 48 h in data set [1] of 40 µM. For the same compound, the Hemolysis at 100 μM in data set [2] is 0.4%. The IC50 in data set [3] was determined as 19.5 nM.

As to `N=C(N)NCCC[C@@H]1NC(=O)[C@@H]2CSSC[C@H](NC(=O)[C@H](Cc3ccc4ccccc4c3)NC(=O)[C@H](CCCNC(=N)N)NC(=O)[C@H](CCCNC(=N)N)NC(=O)[C@H]3CCCN3C(=O)CNC1=O)C(=O)N[C@@H](Cc1ccc(O)cc1)C(=O)N[C@@H](CC(=O)O)C(=O)N[C@@H](CCCCN)C(=O)N1CCC[C@@H]1C(=O)N1CCC[C@H]1C(=O)N[C@@H](Cc1ccc(O)cc1)C(=O)N[C@@H](CCCNC(=N)N)C(=O)N[C@@H](CCCNC(N)=O)C(=O)N2` [Ex. 78] (cyclo(YR[Cit]CRG[dP]RR[2Nal]CYDK[dP]P); disulfide 4-11), the GI50 at 48 h in data set [1] came to 69 µM. The Hemolysis at 100 μM in data set [2] turned out to be 0.1%. The IC50 in data set [3] was 11 nM.

`N=C(N)NCCC[C@@H]1NC(=O)[C@H](CCCNC(=N)N)NC(=O)[C@H]2CCCN2C(=O)CNC(=O)CN(CCN)C(=O)[C@@H]2CSSC[C@H](NC(=O)[C@H](Cc3ccc4ccccc4c3)NC1=O)C(=O)N[C@@H](Cc1ccc(O)cc1)C(=O)N[C@@H](CCCNC(N)=O)C(=O)N[C@@H](CCCCN)C(=O)N1CCC[C@@H]1C(=O)N1CCC[C@H]1C(=O)N[C@@H](Cc1ccc(O)cc1)C(=O)N[C@@H](CCCNC(=N)N)C(=O)N[C@@H](CCCNC(N)=O)C(=O)N2` [Ex. 138] (cyclo(YR[Cit]C[Gly(N-2-aminoethyl)]G[dP]RR[2Nal]CY[Cit]K[dP]P); disulfide 4-11): the GI50 at 48 h in data set [1] was found to be 18 µM. The Hemolysis at 100 μM in data set [2] came to 0%. Moreover, in data set [3], the IC50 was 63 nM.

In turn, `N=C(N)NCCC[C@@H]1NC(=O)CNC(=O)[C@@H]2CCCN2C(=O)[C@H]2CCCN2C(=O)[C@H](CCCCN)NC(=O)[C@H](CCCNC(N)=O)NC(=O)[C@H](Cc2ccc(O)cc2)NC(=O)[C@@H]2CSSC[C@H](NC(=O)[C@H](CCCNC(N)=O)NC1=O)C(=O)N[C@@H](CCCNC(=N)N)C(=O)NCC(=O)N1CCC[C@@H]1C(=O)N[C@@H](CCCNC(=N)N)C(=O)N[C@@H](CCCNC(=N)N)C(=O)N[C@@H](Cc1ccc3ccccc3c1)C(=O)N2` [Ex. 114] (cyclo(GR[Cit]CRG[dP]RR[2Nal]CY[Cit]K[dP]P); disulfide 4-11) showed a GI50 at 48 h in data set [1] of 67 µM. The Hemolysis at 100 μM in data set [2] was determined as 0%. Further, the IC50 in data set [3] was found to be 1.3 nM.

`C[C@@H]1NC(=O)[C@H](CCCNC(=N)N)NC(=O)[C@H](Cc2ccc(O)cc2)NC(=O)[C@@H]2CCCN2C(=O)[C@H]2CCCN2C(=O)[C@H](CCCCN)NC(=O)[C@H](CCC(N)=O)NC(=O)[C@H](Cc2ccc(O)cc2)NC(=O)[C@@H]2CSSC[C@H](NC1=O)C(=O)N[C@@H](CCCNC(=N)N)C(=O)NCC(=O)N1CCC[C@@H]1C(=O)N[C@@H](CCCNC(=N)N)C(=O)N[C@@H](CCCNC(=N)N)C(=O)N[C@@H](Cc1ccc3ccccc3c1)C(=O)N2` [Ex. 95] (cyclo(YRACRG[dP]RR[2Nal]CYQK[dP]P); disulfide 4-11) registered a GI50 at 48 h in data set [1] of 41 µM. Besides, the Hemolysis at 100 μM in data set [2] amounted to 0.1%. For the same compound, the IC50 in data set [3] was 2.9 nM.
